Tested on: MV-4-11 cells
Assay: Gene expression microarray analysis (Affymetrix PrimeView) and GSEA
Assay type: cell-based, human
Design: RFU PODN (11730768_x_at) / Fold change /veh PODN (11730768_x_at) / RFU LINC00158 (11744669_a_at) / Fold change /veh LINC00158 (11744669_a_at) / RFU DUSP10 (11751237_a_at) / Fold change /veh DUSP10 (11751237_a_at) / RFU ID3 (11757404_x_at) / Fold change /veh ID3 (11757404_x_at) / RFU PLEKHG5 (11737974_s_at) / Fold change /veh PLEKHG5 (11737974_s_at) / RFU LRRC4B (11730491_at) / Fold change /veh LRRC4B (11730491_at) / RFU GIMAP4 (11747438_a_at) / Fold change /veh GIMAP4 (11747438_a_at) / RFU KRT8 (11758183_x_at) / Fold change /veh KRT8 (11758183_x_at) / RFU CNN1 (11734310_a_at) / Fold change /veh CNN1 (11734310_a_at) / RFU VPS37D (11726825_at) / Fold change /veh VPS37D (11726825_at) / RFU C10orf10 (11716522_x_at) / Fold change /veh C10orf10 (11716522_x_at) / RFU KIR2DL2 /// KIR2DL4 /// KIR2DL5A /// KIR2DL5B /// KIR2DS1 /// KIR2DS2 /// KIR2DS3 /// KIR2DS4 /// KIR3DL3 /// KIR3DL3 /// KIR3DS1 (11738374_at) / Fold change /veh KIR2DL2 /// KIR2DL4 /// KIR2DL5A /// KIR2DL5B /// KIR2DS1 /// KIR2DS2 /// KIR2DS3 /// KIR2DS4 /// KIR3DL3 /// KIR3DL3 /// KIR3DS1 (11738374_at) / RFU C1QL1 (11718748_at) / Fold change /veh C1QL1 (11718748_at) / RFU TMPRSS4 (11747572_a_at) / Fold change /veh TMPRSS4 (11747572_a_at) / RFU HAMP (11756126_x_at) / Fold change /veh HAMP (11756126_x_at) / RFU RNFT2 (11725882_a_at) / Fold change /veh RNFT2 (11725882_a_at) / RFU NR4A2 (11747474_a_at) / Fold change /veh NR4A2 (11747474_a_at) / RFU ABCC12 (11746883_a_at) / Fold change /veh ABCC12 (11746883_a_at) / RFU TMEM136 (11760407_x_at) / Fold change /veh TMEM136 (11760407_x_at) / RFU CLDN22 /// WWC2 (11732394_at) / Fold change /veh CLDN22 /// WWC2 (11732394_at) / RFU HLA-DPB1 (11760878_x_at) / Fold change /veh HLA-DPB1 (11760878_x_at) / RFU SPINT1 (11716480_a_at) / Fold change /veh SPINT1 (11716480_a_at) / RFU GAP43 (11754022_s_at) / Fold change /veh GAP43 (11754022_s_at) / RFU A4GNT (11735810_at) / Fold change /veh A4GNT (11735810_at) / RFU PRB3 (11715151_x_at) / Fold change /veh PRB3 (11715151_x_at) / RFU TUBB4B (11761932_at) / Fold change /veh TUBB4B (11761932_at) / RFU CAPN14 (11732068_a_at) / Fold change /veh CAPN14 (11732068_a_at) / RFU TMCC2 (11721928_a_at) / Fold change /veh TMCC2 (11721928_a_at) / RFU IRGQ (11745062_a_at) / Fold change /veh IRGQ (11745062_a_at) / RFU FAM174B (11720279_a_at) / Fold change /veh FAM174B (11720279_a_at) / RFU TMPRSS4 (11748680_a_at) / Fold change /veh TMPRSS4 (11748680_a_at) / RFU FAM212B (11763350_a_at) / Fold change /veh FAM212B (11763350_a_at) / RFU PLEKHG5 (11743358_a_at) / Fold change /veh PLEKHG5 (11743358_a_at) / RFU ZSCAN30 (11745921_a_at) / Fold change /veh ZSCAN30 (11745921_a_at) / RFU CMKLR1 (11741424_a_at) / Fold change /veh CMKLR1 (11741424_a_at) / RFU LOC101060620 /// MAPK8IP1 (11723275_at) / Fold change /veh LOC101060620 /// MAPK8IP1 (11723275_at) / RFU SPTSSB (11747773_x_at) / Fold change /veh SPTSSB (11747773_x_at) / RFU PRSS12 (11739890_at) / Fold change /veh PRSS12 (11739890_at) / RFU BIN1 (11741810_x_at) / Fold change /veh BIN1 (11741810_x_at) / RFU WNT11 (11732464_a_at) / Fold change /veh WNT11 (11732464_a_at) / RFU C10orf10 (11716521_a_at) / Fold change /veh C10orf10 (11716521_a_at) / RFU C5orf56 (11738089_at) / Fold change /veh C5orf56 (11738089_at) / RFU CYB561 (11721691_x_at) / Fold change /veh CYB561 (11721691_x_at) / RFU ANKRD19P (11752326_a_at) / Fold change /veh ANKRD19P (11752326_a_at) / RFU OR2T12 /// OR2T33 /// OR2T8 (11738714_s_at) / Fold change /veh OR2T12 /// OR2T33 /// OR2T8 (11738714_s_at) / RFU VCAN (11748164_a_at) / Fold change /veh VCAN (11748164_a_at) / RFU JSRP1 (11732532_at) / Fold change /veh JSRP1 (11732532_at) / RFU KRTAP10-11 (11738290_x_at) / Fold change /veh KRTAP10-11 (11738290_x_at) / RFU MYO3A (11730013_a_at) / Fold change /veh MYO3A (11730013_a_at) / RFU EBF3 (11725865_a_at) / Fold change /veh EBF3 (11725865_a_at) / RFU CAMK2N1 (11719241_x_at) / Fold change /veh CAMK2N1 (11719241_x_at) / RFU C5orf56 (11738088_a_at) / Fold change /veh C5orf56 (11738088_a_at) / RFU OLFML3 (11715873_a_at) / Fold change /veh OLFML3 (11715873_a_at) / RFU LOC100653217 /// NTM (11731650_a_at) / Fold change /veh LOC100653217 /// NTM (11731650_a_at) / RFU MAPK11 (11762145_a_at) / Fold change /veh MAPK11 (11762145_a_at) / RFU FIZ1 (11724087_x_at) / Fold change /veh FIZ1 (11724087_x_at) / RFU OASL (11726364_x_at) / Fold change /veh OASL (11726364_x_at) / RFU SOX15 (11748057_x_at) / Fold change /veh SOX15 (11748057_x_at) / RFU CD79A (11719716_a_at) / Fold change /veh CD79A (11719716_a_at) / RFU HIST1H1D (11736915_at) / Fold change /veh HIST1H1D (11736915_at) / RFU CASKIN2 (11723855_a_at) / Fold change /veh CASKIN2 (11723855_a_at) / RFU LOC730098 (11760151_x_at) / Fold change /veh LOC730098 (11760151_x_at) / RFU OR4N2 (11742367_at) / Fold change /veh OR4N2 (11742367_at) / RFU PRRT2 (11749266_a_at) / Fold change /veh PRRT2 (11749266_a_at) / RFU SNX32 (11753110_a_at) / Fold change /veh SNX32 (11753110_a_at) / RFU CDHR5 (11726645_a_at) / Fold change /veh CDHR5 (11726645_a_at) / RFU RCAN1 (11760418_a_at) / Fold change /veh RCAN1 (11760418_a_at) / RFU FAM167A (11723789_a_at) / Fold change /veh FAM167A (11723789_a_at) / RFU FAM26E (11764081_at) / Fold change /veh FAM26E (11764081_at) / RFU ISYNA1 (11749810_s_at) / Fold change /veh ISYNA1 (11749810_s_at) / RFU ACY1 (11761880_at) / Fold change /veh ACY1 (11761880_at) / RFU 11764098_at / Fold change /veh 11764098_at / RFU SAMD14 (11745864_x_at) / Fold change /veh SAMD14 (11745864_x_at) / RFU NPB (11741838_a_at) / Fold change /veh NPB (11741838_a_at) / RFU TMPRSS6 (11731388_a_at) / Fold change /veh TMPRSS6 (11731388_a_at) / RFU KRTAP10-2 (11738614_at) / Fold change /veh KRTAP10-2 (11738614_at) / RFU ARHGAP8 /// PRR5-ARHGAP8 (11727945_x_at) / Fold change /veh ARHGAP8 /// PRR5-ARHGAP8 (11727945_x_at) / RFU KRTAP5-7 /// NADSYN1 (11734609_at) / Fold change /veh KRTAP5-7 /// NADSYN1 (11734609_at) / RFU RASL12 (11751679_a_at) / Fold change /veh RASL12 (11751679_a_at) / RFU CDKN2B (11736163_a_at) / Fold change /veh CDKN2B (11736163_a_at) / RFU PRF1 (11729649_at) / Fold change /veh PRF1 (11729649_at) / RFU, ZNF638 /// ZNF638-IT1 / Fold change vs veh, ZNF638 /// ZNF638-IT1 / RFU, PANK3 / Fold change vs veh, PANK3 / RFU, SH3YL1 / Fold change vs veh, SH3YL1 / RFU, ZEB2 / Fold change vs veh, ZEB2 / RFU, NRIP1 / Fold change vs veh, NRIP1 / RFU, PTTG1IP / Fold change vs veh, PTTG1IP / RFU, CAPN2 / Fold change vs veh, CAPN2 / RFU, MED14 / Fold change vs veh, MED14 / RFU, SNORA58 / Fold change vs veh, SNORA58 / RFU, C1orf63 / Fold change vs veh, C1orf63 / RFU, LRRFIP1 / Fold change vs veh, LRRFIP1 / RFU, NDUFAF7 / Fold change vs veh, NDUFAF7 / RFU, SLC12A2 / Fold change vs veh, SLC12A2 / RFU, IBTK / Fold change vs veh, IBTK / RFU, ESF1 / Fold change vs veh, ESF1 / Fold change vs veh, TMEM50B / RFU, TAOK1 / Fold change vs veh, TAOK1 / RFU, ACBD3 / Fold change vs veh, ACBD3 / RFU, TMA16 / Fold change vs veh, TMA16 / RFU, RWDD3 / Fold change vs veh, RWDD3 / RFU, BCAT1 / Fold change vs veh, BCAT1 / RFU, EDEM3 / Fold change vs veh, EDEM3 / RFU, TMEM33 / Fold change vs veh, TMEM33 / RFU, WDR75 / Fold change vs veh, WDR75 / RFU, AHCTF1 / Fold change vs veh, AHCTF1 / RFU, TFRC / Fold change vs veh, TFRC / RFU, ZDHHC17 / Fold change vs veh, ZDHHC17 / RFU, NOM1 / Fold change vs veh, NOM1 / RFU, ARL8B / Fold change vs veh, ARL8B / RFU, ZBTB11 / Fold change vs veh, ZBTB11 / RFU, TAMM41 / Fold change vs veh, TAMM41 / RFU, KIAA1704 /// LOC100996395 / Fold change vs veh, KIAA1704 /// LOC100996395 / RFU, ING1 / Fold change vs veh, ING1 / RFU, TRMT61B / Fold change vs veh, TRMT61B / RFU, FUBP3 / Fold change vs veh, FUBP3 / RFU, TP53 / Fold change vs veh, TP53 / RFU, TNKS2 / Fold change vs veh, TNKS2 / RFU, ZFP14 / Fold change vs veh, ZFP14 / RFU, ACTR2 / Fold change vs veh, ACTR2 / RFU, PPP3R1 / Fold change vs veh, PPP3R1 / RFU, PIK3R1 / Fold change vs veh, PIK3R1 / RFU, HNRNPA1 / Fold change vs veh, HNRNPA1 / RFU, RNF170 / Fold change vs veh, RNF170 / RFU, ZNF28 / Fold change vs veh, ZNF28 / RFU, RNGTT / Fold change vs veh, RNGTT / RFU, OGT / Fold change vs veh, OGT / RFU, BRD1 / Fold change vs veh, BRD1 / RFU, MARS / Fold change vs veh, MARS / RFU, ZNF655 / Fold change vs veh, ZNF655 / RFU, FAHD1 / Fold change vs veh, FAHD1 / RFU, BDP1 / Fold change vs veh, BDP1 / RFU, LRRCC1 / Fold change vs veh, LRRCC1 / RFU, ARID1A / Fold change vs veh, ARID1A / RFU, ZNF146 / Fold change vs veh, ZNF146 / RFU, ZNF330 / Fold change vs veh, ZNF330 / RFU, GPN3 / Fold change vs veh, GPN3 / RFU, C9orf123 / Fold change vs veh, C9orf123 / RFU, N4BP2L2 / Fold change vs veh, N4BP2L2 / RFU, ARFIP1 / Fold change vs veh, ARFIP1 / RFU, FAM179B / Fold change vs veh, FAM179B / RFU, BCL10 / Fold change vs veh, BCL10 / RFU, UHRF1BP1L / Fold change vs veh, UHRF1BP1L / RFU, BET1 / Fold change vs veh, BET1 / RFU, CNOT2 / Fold change vs veh, CNOT2 / RFU, ZNF268 / Fold change vs veh, ZNF268 / Fold change vs veh, ZNF507 / RFU, DGCR2 / Fold change vs veh, DGCR2 / RFU, WDSUB1 / Fold change vs veh, WDSUB1 / Fold change vs veh, HSP90B1 /// MIR3652 / RFU, ADSS / Fold change vs veh, ADSS / RFU, GK / Fold change vs veh, GK / RFU, ZNF148 / Fold change vs veh, ZNF148 / RFU, TAF9 / Fold change vs veh, TAF9 / RFU, SLC1A5 / Fold change vs veh, SLC1A5 / RFU, SLMO2 / Fold change vs veh, SLMO2 / RFU, ABCC4 / Fold change vs veh, ABCC4 / RFU, LOC101060439 /// RAP1B / Fold change vs veh, LOC101060439 /// RAP1B / RFU, RFX7 / Fold change vs veh, RFX7 / RFU, GTPBP10 / Fold change vs veh, GTPBP10 / RFU, CNEP1R1 / Fold change vs veh, CNEP1R1 / RFU, BIVM-ERCC5 /// ERCC5 / Fold change vs veh, BIVM-ERCC5 /// ERCC5 / RFU, ILF3 / Fold change vs veh, ILF3 / RFU 11762660_at / Fold change /veh 11762660_at / RFU VCAN (11757783_s_at) / Fold change /veh VCAN (11757783_s_at) / RFU DDX43 (11728927_at) / Fold change /veh DDX43 (11728927_at) / RFU KRT8 (11758188_x_at) / Fold change /veh KRT8 (11758188_x_at) / RFU NKD1 (11759106_at) / Fold change /veh NKD1 (11759106_at) / RFU SRD5A1 (11742802_a_at) / Fold change /veh SRD5A1 (11742802_a_at) / RFU TPSAB1 /// TPSB2 (11721975_s_at) / Fold change /veh TPSAB1 /// TPSB2 (11721975_s_at) / RFU GSTM3 (11746129_a_at) / Fold change /veh GSTM3 (11746129_a_at) / RFU IL23R (11737362_x_at) / Fold change /veh IL23R (11737362_x_at) / RFU TMEM51 (11727254_a_at) / Fold change /veh TMEM51 (11727254_a_at) / RFU PIWIL2 (11732686_x_at) / Fold change /veh PIWIL2 (11732686_x_at) / RFU ORM1 (11744905_x_at) / Fold change /veh ORM1 (11744905_x_at) / RFU CCDC152 (11743942_at) / Fold change /veh CCDC152 (11743942_at) / RFU ECM1 (11717891_a_at) / Fold change /veh ECM1 (11717891_a_at) / RFU IL23R (11748794_a_at) / Fold change /veh IL23R (11748794_a_at) / RFU TNFAIP8L3 (11732012_x_at) / Fold change /veh TNFAIP8L3 (11732012_x_at) / RFU MBOAT4 (11741988_at) / Fold change /veh MBOAT4 (11741988_at) / RFU 11764193_at / Fold change /veh 11764193_at / RFU TMEM53 (11763286_at) / Fold change /veh TMEM53 (11763286_at) / RFU MAGEB2 (11727129_at) / Fold change /veh MAGEB2 (11727129_at) / RFU TMEM200A (11744735_a_at) / Fold change /veh TMEM200A (11744735_a_at) / RFU CCDC152 (11751479_a_at) / Fold change /veh CCDC152 (11751479_a_at) / RFU FAM211A (11726209_a_at) / Fold change /veh FAM211A (11726209_a_at) / RFU RGS16 (11746705_a_at) / Fold change /veh RGS16 (11746705_a_at) / RFU VCAN (11755009_s_at) / Fold change /veh VCAN (11755009_s_at) / RFU RHOB (11743442_s_at) / Fold change /veh RHOB (11743442_s_at) / RFU RGS16 (11720943_a_at) / Fold change /veh RGS16 (11720943_a_at) / RFU RGS16 (11720944_at) / Fold change /veh RGS16 (11720944_at) / RFU, VPS4B / Fold change vs veh, VPS4B / RFU, CREB1 / Fold change vs veh, CREB1 / RFU, DNAJC13 / Fold change vs veh, DNAJC13 / RFU, GNAQ / Fold change vs veh, GNAQ / RFU, CDK5R1 / Fold change vs veh, CDK5R1 / RFU, ZRANB3 / Fold change vs veh, ZRANB3 / RFU, CUL4A / Fold change vs veh, CUL4A / RFU, CCNY / Fold change vs veh, CCNY / RFU, UFL1 / Fold change vs veh, UFL1 / RFU, COG3 / Fold change vs veh, COG3 / RFU, DIAPH2 / Fold change vs veh, DIAPH2 / RFU, SKA2 / Fold change vs veh, SKA2 / RFU, AFF3 / Fold change vs veh, AFF3 / RFU, LMF1 / Fold change vs veh, LMF1 / RFU, IPO11 / Fold change vs veh, IPO11 / RFU, DFFB / Fold change vs veh, DFFB / RFU, FOXP1 / Fold change vs veh, FOXP1 / RFU, CARD8 / Fold change vs veh, CARD8 / RFU, STRN3 / Fold change vs veh, STRN3 / RFU, ADK / Fold change vs veh, ADK / RFU, RASSF2 / Fold change vs veh, RASSF2 / RFU, WIPF1 / Fold change vs veh, WIPF1 / RFU, LARP1B / Fold change vs veh, LARP1B / RFU, RASA1 / Fold change vs veh, RASA1 / RFU, RB1 / Fold change vs veh, RB1 / RFU, PPFIA1 / Fold change vs veh, PPFIA1 / RFU, MAT2A / Fold change vs veh, MAT2A / RFU, CCT5 / Fold change vs veh, CCT5 / RFU, WDR92 / Fold change vs veh, WDR92 / RFU, CUX1 / Fold change vs veh, CUX1 / RFU, TTC7A / Fold change vs veh, TTC7A / RFU, TMEM135 / Fold change vs veh, TMEM135 / RFU, DEPTOR / Fold change vs veh, DEPTOR / RFU, CPM / Fold change vs veh, CPM / RFU, DNAJB6 / Fold change vs veh, DNAJB6 / RFU, CACNA2D3 / Fold change vs veh, CACNA2D3 / RFU, DTX4 / Fold change vs veh, DTX4 / RFU, TFCP2 / Fold change vs veh, TFCP2 / RFU, GMCL1 /// GMCL1P1 / Fold change vs veh, GMCL1 /// GMCL1P1 / RFU, AEBP2 / Fold change vs veh, AEBP2 / RFU, SNHG1 /// SNORD22 /// SNORD25 /// SNORD26 /// SNORD27 /// SNORD28 /// SNORD29 /// SNORD31 / Fold change vs veh, SNHG1 /// SNORD22 /// SNORD25 /// SNORD26 /// SNORD27 /// SNORD28 /// SNORD29 /// SNORD31 / Fold change (Aza/veh), C12orf56 (ProbeSet 11735607_a_at) / Fold change (ACY-1035/veh), C12orf56 (ProbeSet 11735607_a_at) / Fold change (Aza/veh), FGFR1OP (ProbeSet 11751329_s_at) / Fold change (ACY-1035/veh), FGFR1OP (ProbeSet 11751329_s_at) / Fold change (Aza/veh), VPS36 (ProbeSet 11739960_a_at) / Fold change (ACY-1035/veh), VPS36 (ProbeSet 11739960_a_at) / RFU SYPL1 (11715823_x_at) / Fold change /veh SYPL1 (11715823_x_at) / RFU IGFBP7 (11715501_s_at) / Fold change /veh IGFBP7 (11715501_s_at) / RFU REEP3 (11722064_at) / Fold change /veh REEP3 (11722064_at) / RFU IGLL1 (11728026_x_at) / Fold change /veh IGLL1 (11728026_x_at): dose or concentration left out as unconfirmed
Conditions: MV-4-11 cells, 48 hours

For `Nc1ccc(-c2cccs2)cc1NC(=O)c1ccc2c(c1)cc(C1CC1)n2CCN1CCOCC1` [ACY-1035], the “RFU LINC00158 (11744669_a_at)” value was 7.93 RFU.
